T/C data for 18 compounds are collected here from PubChem BioAssay AID248 (DTP/NCI, 2004).

The experiment deals with L1210 leukemia ip in BDF1 mice, survival T/C. The experiment in a line: NCI In Vivo Anticancer Drug Screen. Data for tumor model L1210 Leukemia (intraperitoneal) in B6D2F1 (BDF1) mice. The following applies: endpoint: mean survival time, higher = longer survival. The method in brief: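 Transplantable tumor model; survival measured in treated vs vehicle control mice. Value = treated/control.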

The mark [1] stands for this setting: dose: 100.0 mg/kg/injection, schedule: Q01DX001 (ip), vehicle: Klucel (hydroxypropylcellulose) (HPC).
Where [2] appears, read: dose: 200.0 mg/kg/injection, schedule: Q01DX001 (ip), vehicle: Klucel (hydroxypropylcellulose) (HPC).
Where [3] appears, read: dose: 100.0 mg/kg/injection, schedule: Q01DX009 (ip), vehicle: Klucel (hydroxypropylcellulose) (HPC).
Where [4] appears, read: dose: 100.0 mg/kg/injection, schedule: Q04DX003 (ip), vehicle: Klucel (hydroxypropylcellulose) (HPC).
Where [5] appears, read: dose: 200.0 mg/kg/injection, schedule: Q01DX009 (ip), vehicle: Klucel (hydroxypropylcellulose) (HPC).
Where [6] appears, read: dose: 200.0 mg/kg/injection, schedule: Q04DX003 (ip), vehicle: Klucel (hydroxypropylcellulose) (HPC).
Where [7] appears, read: dose: 400.0 mg/kg/injection, schedule: Q01DX009 (ip), vehicle: Klucel (hydroxypropylcellulose) (HPC).
Setting [8] is: dose: 400.0 mg/kg/injection, schedule: Q04DX003 (ip), vehicle: Klucel (hydroxypropylcellulose) (HPC).
Setting [9] is: dose: 75.0 mg/kg/injection, schedule: Q01DX001 (ip), vehicle: saline.
The mark [10] stands for this setting: dose: 150.0 mg/kg/injection, schedule: Q01DX001 (ip), vehicle: saline.
[11] abbreviates: dose: 100.0 mg/kg/injection, schedule: Q04DX002 (ip), vehicle: Klucel (hydroxypropylcellulose) (HPC).
Setting [12] is: dose: 200.0 mg/kg/injection, schedule: Q04DX002 (ip), vehicle: Klucel (hydroxypropylcellulose) (HPC).
[13] abbreviates: dose: 400.0 mg/kg/injection, schedule: Q04DX002 (ip), vehicle: Klucel (hydroxypropylcellulose) (HPC).
Setting [14] is: dose: 100.0 mg/kg/injection, schedule: Q04DX003 (ip), vehicle: saline.
Where [15] appears, read: dose: 200.0 mg/kg/injection, schedule: Q04DX003 (ip), vehicle: saline.
Setting [16] is: dose: 400.0 mg/kg/injection, schedule: Q04DX003 (ip), vehicle: saline.
Where [17] appears, read: dose: 100.0 mg/kg/injection, schedule: Q01DX001 (ip), vehicle: saline.
[18] abbreviates: dose: 200.0 mg/kg/injection, schedule: Q01DX001 (ip), vehicle: saline.
The mark [19] stands for this setting: dose: 400.0 mg/kg/injection, schedule: Q01DX001 (ip), vehicle: saline.
[20] abbreviates: dose: 75.0 mg/kg/injection, schedule: Q04DX003 (ip), vehicle: saline.
The mark [21] stands for this setting: dose: 150.0 mg/kg/injection, schedule: Q04DX003 (ip), vehicle: saline.

Values joined by “and” are separate entries in the source; they are usually repeats but may differ in a detail not shown here. Equal values may be shown once. Inconclusive results and toxic doses are left out.

As to `C/C=C/c1ccc2oc(-c3ccc(OC4OC(C)C(O)C(O)C4O)cc3)c(C)c2c1` (stereo not drawn), the T/C was 93 % of control under setting [1]; 90 % of control under setting [2]; 96 % of control (dose: 400.0 mg/kg/injection, schedule: Q01DX001 (ip), vehicle: Klucel (hydroxypropylcellulose) (HPC)).
For `Cc1ccc(OCCC(=O)O)cc1`, the T/C runs as follows: (dose: 100.0 mg/kg/injection, schedule: Q04DX002 (ip), vehicle: saline) 108 % of control; (dose: 200.0 mg/kg/injection, schedule: Q04DX002 (ip), vehicle: saline) 101 % of control; (dose: 400.0 mg/kg/injection, schedule: Q04DX002 (ip), vehicle: saline) 108 % of control.
Turning to `Cc1ccc(NC(=S)NC(Cc2ccccc2)c2ccccc2)c(C)c1` (stereo not drawn), the T/C under setting [3] is 106 % of control; the T/C under setting [4] is 98 % of control; the T/C under setting [5] was 87 % of control; the T/C under setting [6] was 96 % of control; the T/C under setting [7] is 101 % of control; the T/C under setting [8] was 98 % of control.
For the compound `COc1cc(NS(C)(=O)=O)ccc1Nc1c2ccc([N+](=O)[O-])cc2nc2c(C)cccc12`, the T/C was 122 % of control (dose: 0.12 mg/kg/injection, schedule: Q01DX009 (ip), vehicle: saline); 113 % of control (dose: 0.37 mg/kg/injection, schedule: Q04DX003 (ip), vehicle: saline); 112 % of control (dose: 0.62 mg/kg/injection, schedule: Q01DX009 (ip), vehicle: saline); 161 % of control (dose: 0.75 mg/kg/injection, schedule: Q04DX003 (ip), vehicle: saline); 166 % of control (dose: 1.0 mg/kg/injection, schedule: Q01DX009 (ip), vehicle: saline); 121 % of control (dose: 1.25 mg/kg/injection, schedule: Q01DX009 (ip), vehicle: saline). The T/C is 187 % of control (dose: 1.5 mg/kg/injection, schedule: Q04DX003 (ip), vehicle: saline); 275 % of control (dose: 2.5 mg/kg/injection, schedule: Q01DX009 (ip), vehicle: saline); 111 % of control and 277 % of control (dose: 5.0 mg/kg/injection, schedule: Q01DX009 (ip), vehicle: saline); 165 % of control (dose: 5.0 mg/kg/injection, schedule: Q01DX009 (sc), vehicle: saline); 218 % of control (dose: 7.5 mg/kg/injection, schedule: Q04DX003 (ip), vehicle: saline); 162 % of control (dose: 15.0 mg/kg/injection, schedule: Q01DX001 (ip), vehicle: other). The T/C by setting is: (dose: 15.0 mg/kg/injection, schedule: Q01DX009 (ip), vehicle: saline) 103 % of control; (dose: 15.0 mg/kg/injection, schedule: Q04DX003 (ip), vehicle: saline) 162 % of control; (dose: 20.0 mg/kg/injection, schedule: Q01DX009 (ip), vehicle: saline) 86 % of control; (dose: 33.0 mg/kg/injection, schedule: Q01DX001 (ip), vehicle: other) 180 % of control; (dose: 50.0 mg/kg/injection, schedule: Q01DX001 (ip), vehicle: other) 177 % of control; (dose: 75.0 mg/kg/injection, schedule: Q01DX001 (ip), vehicle: other) 159 % of control. In addition, the T/C is 203 % of control under setting [9]; 173 % of control (dose: 113.0 mg/kg/injection, schedule: Q01DX001 (ip), vehicle: other); 98 % of control under setting [10].
Consider `CC1=C/C=C/C(C)C(O)C(C)C(O)C(C)C(O)C(C)C(O)C(C)CC=C(C)C(=O)c2c(O)c(C)cc3c2C(=O)C(C)=C(NC1=O)C3=O` (stereo not drawn), for which the T/C by setting is: under setting [4], 103 % of control; under setting [6], 100 % of control; under setting [8], 101 % of control.
For the compound `CSc1ncnc2c1ncn2NCC1OC(C)OCC1O` (stereo not drawn), the T/C reads like this: under setting [1], 96 % of control; under setting [2], 98 % of control.
`CCOc1ccc(NC(=O)N(O)C2(C#N)CCCCC2)cc1`: the T/C (dose: 100.0 mg/kg/injection, schedule: Q01DX001 (ip), vehicle: other) is 93 % of control; the T/C (dose: 200.0 mg/kg/injection, schedule: Q01DX001 (ip), vehicle: other) is 96 % of control; the T/C (dose: 400.0 mg/kg/injection, schedule: Q01DX001 (ip), vehicle: other) was 93 % of control.
As to `O=C(Nc1cccc2ccccc12)OC/C=C/c1ccccc1`, the T/C under setting [11] was 119 % of control, the T/C under setting [12] was 93 % of control and the T/C under setting [13] was 104 % of control.
Turning to `CCOC(CCc1cnc[nH]c1=O)OCC`, the T/C runs as follows: under setting [14], 106 % of control; under setting [15], 97 % of control; under setting [16], 93 % of control.
With `CCOC(=O)c1csc(CCNC(=O)c2ccccc2)n1`, the T/C is 99 % of control under setting [17]; 108 % of control (dose: 100.0 mg/kg/injection, schedule: Q01DX009 (ip), vehicle: saline); 96 % of control under setting [14]; 102 % of control under setting [18]; 97 % of control (dose: 200.0 mg/kg/injection, schedule: Q01DX009 (ip), vehicle: saline); 98 % of control under setting [15]. For the same compound, the T/C was 96 % of control under setting [19]; 100 % of control (dose: 400.0 mg/kg/injection, schedule: Q01DX009 (ip), vehicle: saline); 95 % of control under setting [16].
`COc1ccc(OC)c(NC(=O)Nc2cccc(F)c2)c1`: the T/C (dose: 100.0 mg/kg/injection, schedule: Q01DX009 (ip), vehicle: gum acacia) is 90 % of control and the T/C (dose: 200.0 mg/kg/injection, schedule: Q01DX009 (ip), vehicle: gum acacia) is 92 % of control.
As for `CCCCC[n+]1cccc(C#N)c1`, the T/C runs as follows: (dose: 37.5 mg/kg/injection, schedule: Q04DX003 (ip), vehicle: saline) 100 % of control; under setting [9], 96 % of control; under setting [20], 91 % of control; under setting [10], 100 % of control; under setting [21], 100 % of control.
Consider `N#Cc1cc2ccccc2n(O)c1=N`, for which the T/C by setting is: under setting [20], 93 % of control; under setting [21], 109 % of control; (dose: 300.0 mg/kg/injection, schedule: Q04DX003 (ip), vehicle: saline) 107 % of control.
As for `COc1cc(-c2nc(CCl)no2)cc(OC)c1OC`, the T/C by setting is: under setting [11], 95 % of control; under setting [12], 104 % of control; under setting [13], 104 % of control.
Regarding `O=C(O)/C=C/c1ccc(O)c(O)c1`, the T/C (dose: 100.0 mg/kg/injection, schedule: Q04DX002 (ip), vehicle: gum acacia) is 92 % of control; the T/C (dose: 200.0 mg/kg/injection, schedule: Q04DX002 (ip), vehicle: gum acacia) is 92 % of control; the T/C (dose: 400.0 mg/kg/injection, schedule: Q04DX002 (ip), vehicle: gum acacia) was 95 % of control.
On to `O=[N+]([O-])c1ccnc(NC2CCCCC2)c1`, for which the T/C runs as follows: under setting [17], 97 % of control; under setting [18], 96 % of control; under setting [19], 96 % of control.
Regarding `NC(=O)c1ccccc1NC(=O)COc1ccc(Cl)cc1`, the T/C under setting [3] was 95 % of control; the T/C under setting [4] is 97 % of control; the T/C under setting [5] was 92 % of control; the T/C under setting [6] was 98 % of control; the T/C under setting [7] is 97 % of control; the T/C under setting [8] was 106 % of control.
With `COc1cc(N)ccc1NC(=O)c1ccccc1`, the T/C is 117 % of control (dose: 12.5 mg/kg/injection, schedule: Q01DX001 (ip), vehicle: carboxymethylcellulose (CMC)) and 106 % of control (dose: 25.0 mg/kg/injection, schedule: Q01DX001 (ip), vehicle: carboxymethylcellulose (CMC)).
